Laboratory results taken from publication PMC3171563 (2011).

How the values were obtained:
[1] = target: acetylpolyamine amidohydrolase (APAH) (Mycoplana ramosa, UniProt Q48935); assay: Fluor-de-Lys fluorescence deacetylase assay; type: biochemical
[2] = target: T1, histone deacetylase 8 (HDAC8) (Homo sapiens, UniProt Q9BY41); assay: Fluor-de-Lys fluorescence deacetylase assay; type: biochemical
T1 sequence (Q9BY41 1-377): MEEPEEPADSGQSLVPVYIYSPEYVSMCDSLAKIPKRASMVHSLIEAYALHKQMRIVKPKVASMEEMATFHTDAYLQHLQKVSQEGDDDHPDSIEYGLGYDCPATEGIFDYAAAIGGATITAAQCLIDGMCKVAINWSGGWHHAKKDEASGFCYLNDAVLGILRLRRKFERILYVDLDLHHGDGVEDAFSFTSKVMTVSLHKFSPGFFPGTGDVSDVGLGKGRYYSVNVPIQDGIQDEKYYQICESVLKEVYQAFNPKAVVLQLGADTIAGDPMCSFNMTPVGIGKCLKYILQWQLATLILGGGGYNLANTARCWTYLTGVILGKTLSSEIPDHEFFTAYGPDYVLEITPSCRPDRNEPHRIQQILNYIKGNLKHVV

Chain of acetylpolyamine amidohydrolase (APAH) (Q48935 whole entry): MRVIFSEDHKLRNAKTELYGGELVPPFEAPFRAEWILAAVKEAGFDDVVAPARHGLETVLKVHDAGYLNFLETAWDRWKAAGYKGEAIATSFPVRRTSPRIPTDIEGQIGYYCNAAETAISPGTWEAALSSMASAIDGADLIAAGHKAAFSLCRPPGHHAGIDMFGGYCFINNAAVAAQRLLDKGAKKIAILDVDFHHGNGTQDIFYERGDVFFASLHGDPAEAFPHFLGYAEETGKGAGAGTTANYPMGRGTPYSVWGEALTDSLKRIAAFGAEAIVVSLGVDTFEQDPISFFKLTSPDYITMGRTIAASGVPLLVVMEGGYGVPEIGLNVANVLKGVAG

N[C@@H](CCCCC(=O)C(F)(F)F)C(=O)O [compound 10, (S)-2-amino-8,8,8-trifluoro-7-oxo-octanoic acid]
IC50 [1]: 110 ± 30 µM
IC50 [2]: 1.5 ± 0.2 µM
